{
  "source": "patent EP4537820A1",
  "about": "“COMPOUND AND COMBINATIONS COMPRISING SAID COMPOUND TO IMPROVE IMMUNE RESPONSE” (Institut Gustave-Roussy, priority 2023, dated 2025)",
  "key": {"20S-REGγ proteasome": {"target": "T1, 20S-REGγ proteasome (Homo sapiens, UniProt P61289)", "T1 construct": "made in house", "T1 sequence (P61289 whole entry)": "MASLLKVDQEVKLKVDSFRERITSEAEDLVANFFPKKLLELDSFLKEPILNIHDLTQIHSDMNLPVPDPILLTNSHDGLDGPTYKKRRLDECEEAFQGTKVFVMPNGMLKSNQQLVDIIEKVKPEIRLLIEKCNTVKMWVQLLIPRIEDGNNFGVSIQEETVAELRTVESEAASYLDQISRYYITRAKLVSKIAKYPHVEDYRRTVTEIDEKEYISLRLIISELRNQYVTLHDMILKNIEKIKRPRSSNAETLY", "experiment": "Proteasome Activity Assay with fluorogenic AMC substrates, in presence of REGγ", "format": "biochemical", "settings": "0.5nM human 20S + 12.5nM human REGγ", "description": "(§1) Proteasome Activity Assay - The activity of the 20S and 20S-REGγ proteasomes was followed by fluorescence using the Bz-VGR-AMC (#BML-BW9375-0005, Enzo Life Sciences) substrate at 50µM for tryspin-like activity, the Suc-LLVY-AMC (#BML-P802-0005, Enzo Life Sciences) substrate at 100µM for the chemotrypsin-like activity and the Z-LLE-AMC (#BML-ZW9345-0005, Enzo Life Sciences) substrate at 100µM for the caspase-like activity. Substrates were incubated with 0,5nM of human 20S ((#E-360-050, Biotechne) and 12,5nM of human REGγ or 2nM of human REGαβ with or without compounds at different concentrations. Purified human REGγ and REGGαβ were generously provided by Julien Marcoux and Marie-Pierre Bousquet-Dubouch. Human REGγ and REGαβ were purified according to Le Feuvre et al., 2009 from plasmids kindly provided by Olivier Coux. The activity assay was performed in 96 well plates in a final volume of 80µL. Plates were read every minute for 90 minutes with a FLUOstar plate reader (BMG Labtech). To detect fluorescence, the excitation wavelength was set to 355nm and emission wavelength at 460nm.\nThe activity of the 20S and 20S-REGγ proteasomes was followed by fluorescence using the Bz-VGR-AMC (#BML-BW9375-0005, Enzo Life Sciences) substrate at 50µM for trypsin-like activity, the Suc-LLVY-AMC (#BML-P802-0005, Enzo Life Sciences) substrate at 100µM for the chemotrypsin-like activity and the Z-LLE-AMC (#BML-ZW9345-0005, Enzo Life Sciences) substrate at 100µM for the caspase-like activity. […]"}, "20S proteasome": {"tested_on": "T2, 20S proteasome", "T2 construct": "purified 20S proteasome from human erythrocytes; purchased Biotechne E-360-050; host or cells: human erythrocytes", "experiment": "Proteasome Activity Assay with fluorogenic AMC substrates, without REGγ", "format": "biochemical, human", "settings": "20S proteasome not in the presence of REGγ, even at high doses", "description": "as §1, with “460nm. […]” for “460nm.”"}, "A375 REGγ KO cells": {"tested_on": "A375 REGγ KO cells", "experiment": "MTT assay", "format": "cell-based", "settings": "Homo sapiens, A-375, 24-hour treatment, read-out: IC50 (cell viability)", "description": "(§2) 2,5×10^4 of MCA cells or 5×10^4 of MCA c13 cells were plated in quadruplicates in clear 96-well plates and incubated overnight. The next day, cells were with various concentration of the tested compounds for 24h. After treatment, media was carefully removed before adding 50µL of new media and 10µL of tetrazolium salt solution (5mg/mL in PBS) and homogeneizing the well by pipetting up and down. The plate was then incubated for 2 hours at 37°C. After incubation, plate was centrifuged 5min at 1500rpm before adding 150µL of DMSO to each well to solubilize the formazan cristals. The plate was incubated on agitation for 10min and absorbance was read at 544nm using a EL808 (Biotek) plate reader.\n(§3) To assess the efficacy of compound 58 against tumor cell lines, inventors initially aimed to determine its IC50 values in both mouse and human cell lines. They utilized an MTT assay to ascertain these values for mouse MCA fibrosarcoma and human A375 melanoma cell lines. Specifically, they treated 2.5 × 10^4 MCA WT or MCA REGγ KO cells and 5 × 10^4 human A375 WT or A375 REGγ KO cells with varying concentrations of compound 58 for a 24-hour duration."}, "[1]": {"tested_on": "A375 WT cells (A375 melanoma)", "experiment": "MTT assay", "format": "cell-based", "settings": "Homo sapiens, A-375, 24-hour treatment, read-out: IC50 (cell viability)", "description": "as §2, §3"}, "MCA REGγ KO cells": {"tested_on": "MCA REGγ KO cells", "experiment": "MTT assay", "format": "cell-based", "settings": "Mus musculus, 24-hour treatment, read-out: IC50 (cell viability)", "description": "as §2, §3"}, "[2]": {"tested_on": "MCA WT cells (MCA fibrosarcoma)", "experiment": "MTT assay", "format": "cell-based", "settings": "Mus musculus, 24-hour treatment, read-out: IC50 (cell viability)", "description": "as §2, §3"}},
  "data": [
    {"smiles": "Cc1ccc(N=Nc2ccc(C)cc2NC(=O)Nc2ccccc2F)cc1", "note": "[compound 58]", "values": [
      {"measurement": "concentration at which inhibition of trypsin-like activity starts", "setting": "20S-REGγ proteasome; Bz-VGR-AMC 50µM, stronger effect at 100 µM", "result": 50, "unit": "µM"},
      {"measurement": "concentration at which chymotrypsin-like activity is inhibited", "setting": "20S-REGγ proteasome; Suc-LLVY-AMC 100µM, inhibited only at this concentration", "result": 100, "unit": "µM"},
      {"measurement": "concentration at which inhibition of caspase-like activity starts", "setting": "20S-REGγ proteasome; Z-LLE-AMC 100µM, stronger effect at 100 µM", "result": 50, "unit": "µM"},
      {"measurement": "inhibitory effect on the three activities (trypsin-like, caspase-like, chymotrypsin-like)", "setting": "20S proteasome", "result": "did not exhibit any inhibitory effect"},
      {"measurement": "IC50", "setting": "A375 REGγ KO cells", "result": 486, "unit": "µM"},
      {"measurement": "IC50", "setting": "[1]", "result": 150, "unit": "µM"},
      {"measurement": "IC50", "setting": "MCA REGγ KO cells", "result": 99.6, "unit": "µM"},
      {"measurement": "IC50", "setting": "[2]", "result": 39.1, "unit": "µM"}
    ]}
  ]
}
